Data on nine compounds can be found in ChEMBL document CHEMBL1201862, “PubChem BioAssay data set” (2004).

Active and inactive are the calls of the source.

Experiment [1] deals with C-C chemokine receptor type 6 (Homo sapiens, UniProt P51684). In words: antagonism of CCR6 beta-arrestin recruitment – cell-based, luminescent beta-arrestin readout, dose response (AID 504728). It counts as functional.
A further experiment has as its target Beta-galactosidase (Escherichia coli, UniProt Q8VNN2). In words: detection-enzyme interference by beta-gal modulators – biochemical, E. coli enzyme, set 3, artefact control for CCR6 antagonist project, dose response (AID 504712). It counts as functional.
The target of experiment [2] is Eukaryotic translation initiation factor 4H (Homo sapiens, UniProt Q15056). In words: eIF4H binding inhibition – biochemical, uHTS, fluorescence polarization, translation initiation inhibitor project, primary screen (AID 2012). For orientation: Polarisation of emitted light reports the rotation of a fluorescent probe.
The target in experiment [3] is Polyadenylate-binding protein 1 (Homo sapiens, UniProt P11940). Kind of experiment: blockers of PABP interaction with poly(A) – biochemical, fluorescence polarization, […] (AID 2014).
Experiment [4] concerns the target Guanyl-specific ribonuclease T1 (Aspergillus oryzae (strain ATCC 42149 / RIB 40), UniProt P00651). In words: inhibition of ribonuclease T1 activity – biochemical, fluorescence polarization, 1536-well, counter-screen for TPT1 inhibitor project, dose response (AID 2167).
Experiment [5] addresses T1, SUMO-activating enzyme (Homo sapiens, UniProt Q9UBT2). In words: blockers of UBC9-mediated SUMO conjugation – biochemical, AlphaScreen, SUMOylation inhibitor project, confirmation (AID 2018). It counts as functional. For orientation: Alpha assays give light when donor and acceptor beads are brought close together.
Experiment [6] addresses T1, SUMO-activating enzyme. Kind of experiment: blockers of SAE1/SAE2–UBC9 SUMO transfer – biochemical, HTRF, uHTS, primary screen (AID 2006). It counts as protein-complex assay. For orientation: Time-resolved FRET reads energy transfer from a long-lived donor to a nearby acceptor.
Experiment [7] has as its target Likely tRNA 2'-phosphotransferase (Candida albicans (strain SC5314 / ATCC MYA-2876) (Yeast), UniProt Q5A7N4). In words: inhibition of Candida TPT1 enzyme activity – biochemical, fluorescence polarization, dose response (AID 2160).
The target in experiment [8] is Induced myeloid leukemia cell differentiation protein Mcl-1 (Homo sapiens, UniProt Q07820). Type of experiment: functional.
In experiment [9] the target is Intestinal-type alkaline phosphatase (Homo sapiens, UniProt P09923). Kind of experiment: activation of human intestinal alkaline phosphatase – biochemical, dose response (AID 488873). Type of experiment: functional.
For experiment [10], the target named is Intestinal-type alkaline phosphatase (Mus musculus, UniProt P24822). In words: PubChem AID 488785. Type of experiment: functional.
Chain of Intestinal-type alkaline phosphatase (Mus musculus, UniProt P24822) (P24822 whole entry): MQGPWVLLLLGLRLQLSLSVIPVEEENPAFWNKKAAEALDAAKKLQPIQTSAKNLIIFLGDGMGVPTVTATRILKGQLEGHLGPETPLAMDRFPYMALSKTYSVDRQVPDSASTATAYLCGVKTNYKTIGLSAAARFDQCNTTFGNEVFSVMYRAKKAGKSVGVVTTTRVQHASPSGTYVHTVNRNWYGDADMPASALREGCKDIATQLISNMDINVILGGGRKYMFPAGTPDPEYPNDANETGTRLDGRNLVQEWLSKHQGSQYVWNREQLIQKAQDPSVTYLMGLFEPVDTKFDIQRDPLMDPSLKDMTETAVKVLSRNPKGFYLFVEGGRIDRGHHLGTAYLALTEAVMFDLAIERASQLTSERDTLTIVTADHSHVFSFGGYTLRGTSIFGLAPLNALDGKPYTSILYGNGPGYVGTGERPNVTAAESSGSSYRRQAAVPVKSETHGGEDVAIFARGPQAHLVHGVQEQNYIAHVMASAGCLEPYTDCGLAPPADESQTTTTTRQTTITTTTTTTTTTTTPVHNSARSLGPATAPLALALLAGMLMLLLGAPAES
For experiment [11], the target named is T2, Alkaline phosphatase, tissue-nonspecific isozyme (Homo sapiens, UniProt P05186).
T2 sequence (P05186 whole entry): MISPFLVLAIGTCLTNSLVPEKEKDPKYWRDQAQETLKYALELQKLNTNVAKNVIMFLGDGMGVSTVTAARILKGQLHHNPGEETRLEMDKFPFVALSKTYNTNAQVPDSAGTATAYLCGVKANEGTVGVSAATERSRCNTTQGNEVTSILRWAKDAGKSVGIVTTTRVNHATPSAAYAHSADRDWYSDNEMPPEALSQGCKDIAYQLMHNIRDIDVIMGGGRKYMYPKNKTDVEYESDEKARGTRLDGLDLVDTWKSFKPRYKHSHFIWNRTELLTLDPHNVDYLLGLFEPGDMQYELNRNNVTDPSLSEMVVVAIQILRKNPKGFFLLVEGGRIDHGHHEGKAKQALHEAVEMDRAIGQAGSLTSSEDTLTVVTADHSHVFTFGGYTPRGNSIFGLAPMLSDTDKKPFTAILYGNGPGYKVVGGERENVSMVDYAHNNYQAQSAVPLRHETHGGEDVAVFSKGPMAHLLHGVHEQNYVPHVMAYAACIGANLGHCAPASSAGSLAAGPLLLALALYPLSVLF
In words: TNAP enzyme inhibition by screening hits, dose response, selectivity assay for mouse IAP inhibitor project, biochemical, human TNAP, uHTS hits (AID 488906). It counts as functional.

For the next experiment, the target named is T3, Cysteine protease ATG4B (Homo sapiens, UniProt Q9Y4P1).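 Note: Fluorescence-based dose-response confirmation assay measuring inhibition of ATG4B activity.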
T3 sequence (Q9Y4P1 whole entry): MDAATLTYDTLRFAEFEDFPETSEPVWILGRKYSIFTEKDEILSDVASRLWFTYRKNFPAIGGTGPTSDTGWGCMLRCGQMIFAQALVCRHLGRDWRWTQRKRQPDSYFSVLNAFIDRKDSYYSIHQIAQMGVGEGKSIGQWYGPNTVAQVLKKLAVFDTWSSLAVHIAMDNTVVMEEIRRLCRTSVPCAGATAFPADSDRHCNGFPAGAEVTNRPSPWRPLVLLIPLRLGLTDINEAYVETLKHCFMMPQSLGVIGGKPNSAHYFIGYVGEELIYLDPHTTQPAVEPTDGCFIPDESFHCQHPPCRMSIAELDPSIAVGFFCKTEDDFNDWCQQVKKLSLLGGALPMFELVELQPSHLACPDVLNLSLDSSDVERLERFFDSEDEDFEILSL
It counts as functional.

A further experiment addresses Phospholipase A2 (Homo sapiens, UniProt P04054). Type of experiment: functional.
Experiment [12] is described as follows: luciferase reporter signal reduction – luminescence, H4-C neuroglioblastoma cells, dose response (AID 2458).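 Note: H4 neuroglioblastoma cells stably carrying a luciferase reporter gene fusion.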 Type of experiment: functional, cell-based.
A further experiment in a line: cells. Type of experiment: functional, cell-based.
A short description of experiment [13]: Luminescence Cell-Based Dose Response HTS to Identify Inhibitors of 5'UTR Stem-Loop Driven Prion Protein mRNA Translation in H4 Neuroglioblastoma Cells. [Related pubchem assays: 1827 (Project Summary), 1813 (Primary HTS)]. Type of experiment: functional.
The nature of experiment [14]: alpha-synuclein stem-loop luciferase translation blockers – H4 neuroglioma cells, luminescence, confirmation (AID 1988). It counts as functional, cell-based.
Experiment [15] is described as follows: alpha-synuclein stem-loop translation blockers – luminescence, H4 neuroglioblastoma cells, dose confirmation, confirmation (AID 2454).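 Note: H4 neuroglioblastoma cells carrying an alpha-synuclein 5'UTR luciferase reporter; potency for inhibition of the luciferase signal.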 Type of experiment: functional, cell-based.
A short description of experiment [16]: HEK-293T cell viability reduction – luminescence, B-cell screen hits, cytotoxicity control for BCR NF-kB inhibitor project, dose response (AID 489021).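 Note: HEK-293T cells carrying an NF-kB luciferase reporter; cells exposed to compound for about 14 hours before viability readout.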 Type of experiment: functional, cell-based.
Experiment [17] concerns the target Photoreceptor-specific nuclear receptor (Homo sapiens, UniProt Q9Y5X4). Type of experiment: functional.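 Note: potency for compounds that break the NR2E3 corepressor complex and count as activators.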
Experiment [18] deals with Peroxisome proliferator-activated receptor gamma/Nuclear receptor corepressor 2 (Homo sapiens, UniProt P37231+Q9Y618). It counts as functional.
The target in experiment [19] is T4, Eukaryotic translation initiation factor 2-alpha kinase 3 (Homo sapiens, UniProt Q9NZJ5). Kind of experiment: Dose response cell-based high-throughput screening assay to measure PERK inhibition. [Related pubchem assays: 1416 ]. It counts as functional.
T4 sequence (Q9NZJ5 whole entry): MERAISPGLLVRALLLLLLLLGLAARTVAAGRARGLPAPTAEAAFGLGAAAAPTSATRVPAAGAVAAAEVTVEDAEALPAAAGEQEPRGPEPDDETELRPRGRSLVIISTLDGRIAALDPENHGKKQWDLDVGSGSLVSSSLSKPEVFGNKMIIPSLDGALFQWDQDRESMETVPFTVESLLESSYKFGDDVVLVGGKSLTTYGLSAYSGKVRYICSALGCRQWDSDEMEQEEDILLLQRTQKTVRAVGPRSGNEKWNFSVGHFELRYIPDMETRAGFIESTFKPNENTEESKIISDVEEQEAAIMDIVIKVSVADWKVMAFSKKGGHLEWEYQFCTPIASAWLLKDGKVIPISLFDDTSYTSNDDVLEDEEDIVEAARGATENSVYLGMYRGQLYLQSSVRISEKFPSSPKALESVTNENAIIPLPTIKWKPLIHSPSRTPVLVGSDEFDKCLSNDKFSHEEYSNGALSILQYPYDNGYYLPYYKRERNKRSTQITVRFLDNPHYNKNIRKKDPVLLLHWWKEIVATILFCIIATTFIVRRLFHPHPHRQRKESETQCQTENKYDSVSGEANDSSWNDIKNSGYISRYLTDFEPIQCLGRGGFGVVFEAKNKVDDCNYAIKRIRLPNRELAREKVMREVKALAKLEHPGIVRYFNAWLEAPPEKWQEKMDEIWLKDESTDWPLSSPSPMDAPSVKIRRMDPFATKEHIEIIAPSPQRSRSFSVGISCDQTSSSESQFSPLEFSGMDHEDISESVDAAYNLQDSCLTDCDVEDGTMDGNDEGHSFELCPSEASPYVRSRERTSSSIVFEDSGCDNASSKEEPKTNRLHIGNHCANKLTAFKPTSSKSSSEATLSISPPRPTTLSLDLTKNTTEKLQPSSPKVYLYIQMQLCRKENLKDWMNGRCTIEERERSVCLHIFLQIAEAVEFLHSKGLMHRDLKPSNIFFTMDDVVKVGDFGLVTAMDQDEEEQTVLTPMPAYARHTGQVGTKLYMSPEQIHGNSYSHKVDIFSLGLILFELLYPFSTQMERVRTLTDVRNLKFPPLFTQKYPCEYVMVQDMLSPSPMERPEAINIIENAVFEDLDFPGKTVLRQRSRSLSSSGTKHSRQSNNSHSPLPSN
In experiment [20] the target is T4, Eukaryotic translation initiation factor 2-alpha kinase 3. In words: Counterscreen assay for PERK inhibitors: Dose response cell-based high throughput screening assay to measure inhibition of PERK at 6 hours. [Related pubchem assays: 1522, 1416 ]. Type of experiment: functional.
Experiment [21] concerns the target T2, Alkaline phosphatase, tissue-nonspecific isozyme.
Experiment [22] in a line: NIH-3T3 fibroblast cytotoxicity, dose response, cytotoxicity control, cell-based, fluorescence, Alamar Blue, secondary assay (AID 2327).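 Note: NIH-3T3 mouse fibroblasts cultured with fluconazole at 8 µg/mL.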 It counts as functional.
Experiment [23] can be described thus: A cytotoxicity screen of small molecule inhibitors of the PhoP region in Salmonella typhi identified in the primary screen. [Related pubchem assays: 1850, 1864, 1985 ]. Type of experiment: functional.
Experiment [24] is described as follows: fluconazole-exposed Candida albicans growth modulators – fluorescence, retest, confirmation (AID 2467). Type of experiment: functional, cell-based.
Experiment [25] is described as follows: Luminescence Cell-Based Dose Retest to Confirm Inhibitors of Cancer Stem Cells. [Related pubchem assays (depositor defined):AID2717, AID2721]. Type of experiment: functional. The settings on record: Homo sapiens.
Experiment [26] can be described thus: luciferase reporter signal suppression in cells – H4 neuroglioma cells, luminescence, dose response (AID 1990). Type of experiment: functional, cell-based.
For experiment [27], the target named is T5, RNA-binding protein pos-1 (Caenorhabditis elegans, UniProt G5EF15).
T5 sequence (G5EF15 whole entry): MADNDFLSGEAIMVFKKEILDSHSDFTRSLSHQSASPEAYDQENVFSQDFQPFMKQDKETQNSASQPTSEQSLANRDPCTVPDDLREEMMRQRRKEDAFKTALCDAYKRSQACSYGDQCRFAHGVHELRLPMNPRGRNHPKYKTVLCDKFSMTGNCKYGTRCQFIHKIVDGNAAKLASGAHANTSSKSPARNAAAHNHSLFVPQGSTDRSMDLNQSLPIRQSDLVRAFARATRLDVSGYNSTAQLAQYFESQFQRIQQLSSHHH
Kind of experiment: disruptors of C. elegans POS-1 RNA interaction – biochemical, fluorescence polarization, dose response (AID 1964).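 Note: purified POS-1 fused to maltose binding protein made in E. coli; potency of compounds blocking POS-1 binding to fluorescent RNA.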

The target of a further experiment is Cytochrome P450 2D6 (Homo sapiens, UniProt P10635). Kind of experiment: qHTS Assay for Inhibitors and Substrates of Cytochrome P450 2D6. [Related pubchem assays: 410 ]. It counts as ADME. The following applies: read-out: Potency.
For experiment [28], the target named is T6, Zinc finger protein mex-5 (Caenorhabditis elegans, UniProt Q9XUB2).
T6 sequence (Q9XUB2 whole entry): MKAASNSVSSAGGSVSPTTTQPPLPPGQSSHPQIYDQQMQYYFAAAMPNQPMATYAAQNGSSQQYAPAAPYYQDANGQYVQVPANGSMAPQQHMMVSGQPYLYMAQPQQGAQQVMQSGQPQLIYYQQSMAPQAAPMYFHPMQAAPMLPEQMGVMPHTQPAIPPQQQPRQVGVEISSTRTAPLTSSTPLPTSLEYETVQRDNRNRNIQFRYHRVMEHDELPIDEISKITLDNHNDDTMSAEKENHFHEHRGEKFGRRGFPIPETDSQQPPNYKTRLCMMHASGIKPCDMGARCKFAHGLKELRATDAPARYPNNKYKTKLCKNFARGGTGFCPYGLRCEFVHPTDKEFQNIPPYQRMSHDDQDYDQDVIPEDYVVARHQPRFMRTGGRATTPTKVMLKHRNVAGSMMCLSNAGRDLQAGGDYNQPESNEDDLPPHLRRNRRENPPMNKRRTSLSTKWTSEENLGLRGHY
Kind of experiment: potency of MEX-5 RNA-binding blockers – biochemical, C. elegans, fluorescence polarization, dose response (AID 1960).

The target of the next experiment is Cytochrome P450 2C9 (Homo sapiens, UniProt P11712). The following applies: Potency.
Chain of Cytochrome P450 2C9 (P11712 whole entry): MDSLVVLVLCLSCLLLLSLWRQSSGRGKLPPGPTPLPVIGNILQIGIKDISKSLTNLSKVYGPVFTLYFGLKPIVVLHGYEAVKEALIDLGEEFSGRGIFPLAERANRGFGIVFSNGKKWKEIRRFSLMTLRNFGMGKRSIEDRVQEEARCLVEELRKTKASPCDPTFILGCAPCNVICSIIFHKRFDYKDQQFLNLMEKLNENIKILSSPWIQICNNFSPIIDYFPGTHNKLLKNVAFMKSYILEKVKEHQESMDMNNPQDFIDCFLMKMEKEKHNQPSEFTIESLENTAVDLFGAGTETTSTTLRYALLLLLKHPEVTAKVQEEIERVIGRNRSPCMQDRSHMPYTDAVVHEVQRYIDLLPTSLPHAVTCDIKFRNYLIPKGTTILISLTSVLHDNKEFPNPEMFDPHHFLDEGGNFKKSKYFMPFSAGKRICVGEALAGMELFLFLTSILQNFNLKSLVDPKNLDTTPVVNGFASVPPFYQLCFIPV

T1 sequence (Q9UBE0 whole entry): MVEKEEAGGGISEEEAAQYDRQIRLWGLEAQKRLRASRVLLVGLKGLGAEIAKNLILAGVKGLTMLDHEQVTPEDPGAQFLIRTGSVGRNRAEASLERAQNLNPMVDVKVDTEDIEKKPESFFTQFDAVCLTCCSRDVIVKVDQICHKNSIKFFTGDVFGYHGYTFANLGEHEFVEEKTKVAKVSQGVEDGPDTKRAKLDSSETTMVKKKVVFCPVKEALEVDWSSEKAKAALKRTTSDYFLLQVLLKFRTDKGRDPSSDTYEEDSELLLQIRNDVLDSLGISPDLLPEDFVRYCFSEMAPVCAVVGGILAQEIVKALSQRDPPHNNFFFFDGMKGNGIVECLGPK
T1 sequence (Q9UBT2 whole entry): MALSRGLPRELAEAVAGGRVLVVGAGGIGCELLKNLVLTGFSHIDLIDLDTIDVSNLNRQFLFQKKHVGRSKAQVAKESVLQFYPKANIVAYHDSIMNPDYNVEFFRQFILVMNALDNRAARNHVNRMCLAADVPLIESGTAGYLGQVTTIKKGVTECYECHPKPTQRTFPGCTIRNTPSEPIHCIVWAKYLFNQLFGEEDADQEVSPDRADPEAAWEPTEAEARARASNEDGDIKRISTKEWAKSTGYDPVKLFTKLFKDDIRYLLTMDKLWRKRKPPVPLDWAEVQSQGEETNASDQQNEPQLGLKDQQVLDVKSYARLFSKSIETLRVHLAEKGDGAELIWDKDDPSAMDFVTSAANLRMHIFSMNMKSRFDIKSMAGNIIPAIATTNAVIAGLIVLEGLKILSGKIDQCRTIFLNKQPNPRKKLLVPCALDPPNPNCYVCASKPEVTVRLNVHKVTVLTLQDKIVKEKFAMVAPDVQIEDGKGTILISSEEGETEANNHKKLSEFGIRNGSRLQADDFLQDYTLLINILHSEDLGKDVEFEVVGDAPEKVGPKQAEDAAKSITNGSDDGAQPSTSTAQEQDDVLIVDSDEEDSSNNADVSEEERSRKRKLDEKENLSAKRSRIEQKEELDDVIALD
Chain of C-C chemokine receptor type 6 (P51684 whole entry): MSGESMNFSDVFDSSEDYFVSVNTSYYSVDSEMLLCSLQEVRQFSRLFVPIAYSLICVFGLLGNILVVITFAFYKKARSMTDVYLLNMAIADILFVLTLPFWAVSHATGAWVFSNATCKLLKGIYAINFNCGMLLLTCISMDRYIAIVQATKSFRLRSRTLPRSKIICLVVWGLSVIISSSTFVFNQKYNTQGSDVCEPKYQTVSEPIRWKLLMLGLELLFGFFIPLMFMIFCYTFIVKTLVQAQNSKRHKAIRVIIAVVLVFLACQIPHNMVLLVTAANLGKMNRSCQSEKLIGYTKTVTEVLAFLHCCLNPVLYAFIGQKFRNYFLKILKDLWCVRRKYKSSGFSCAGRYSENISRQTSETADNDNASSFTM
Chain of Phospholipase A2 (P04054 whole entry, the tested form may be a part): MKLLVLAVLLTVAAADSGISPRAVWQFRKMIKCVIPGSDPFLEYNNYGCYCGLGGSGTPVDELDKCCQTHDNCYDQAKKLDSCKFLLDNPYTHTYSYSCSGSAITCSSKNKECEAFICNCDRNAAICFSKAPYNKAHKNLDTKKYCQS
Chain of Guanyl-specific ribonuclease T1 (P00651 whole entry): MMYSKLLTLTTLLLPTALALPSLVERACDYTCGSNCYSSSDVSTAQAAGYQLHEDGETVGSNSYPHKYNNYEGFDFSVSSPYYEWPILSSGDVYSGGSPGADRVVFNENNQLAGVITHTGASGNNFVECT
Chain of Beta-galactosidase (Q8VNN2 whole entry): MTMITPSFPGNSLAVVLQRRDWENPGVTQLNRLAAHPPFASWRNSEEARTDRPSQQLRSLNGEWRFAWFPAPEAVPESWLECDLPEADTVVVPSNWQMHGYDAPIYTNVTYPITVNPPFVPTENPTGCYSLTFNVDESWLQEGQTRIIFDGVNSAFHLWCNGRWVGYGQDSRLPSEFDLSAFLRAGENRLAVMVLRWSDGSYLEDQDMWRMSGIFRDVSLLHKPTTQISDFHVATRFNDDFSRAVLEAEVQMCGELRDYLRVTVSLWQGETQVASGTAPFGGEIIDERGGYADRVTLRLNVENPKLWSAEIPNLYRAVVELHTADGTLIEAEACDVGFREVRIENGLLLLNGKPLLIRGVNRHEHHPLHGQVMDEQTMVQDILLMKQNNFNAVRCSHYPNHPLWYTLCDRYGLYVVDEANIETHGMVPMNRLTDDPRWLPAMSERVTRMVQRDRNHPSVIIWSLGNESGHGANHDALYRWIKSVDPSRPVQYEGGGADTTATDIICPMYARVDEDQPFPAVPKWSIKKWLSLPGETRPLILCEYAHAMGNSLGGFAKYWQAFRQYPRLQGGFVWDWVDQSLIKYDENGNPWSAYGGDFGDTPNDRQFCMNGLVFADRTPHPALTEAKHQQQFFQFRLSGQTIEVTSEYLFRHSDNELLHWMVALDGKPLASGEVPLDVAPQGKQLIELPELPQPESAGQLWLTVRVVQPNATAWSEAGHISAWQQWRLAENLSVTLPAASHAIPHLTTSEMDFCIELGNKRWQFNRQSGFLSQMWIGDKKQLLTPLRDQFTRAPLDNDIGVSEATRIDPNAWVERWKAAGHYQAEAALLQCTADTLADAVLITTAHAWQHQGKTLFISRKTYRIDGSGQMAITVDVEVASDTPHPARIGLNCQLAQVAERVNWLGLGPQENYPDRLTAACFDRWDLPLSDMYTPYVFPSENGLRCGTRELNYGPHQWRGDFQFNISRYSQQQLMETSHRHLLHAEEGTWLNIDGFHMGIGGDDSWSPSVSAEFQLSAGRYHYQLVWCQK

Usually IC50 stands for the midpoint of a concentration-inhibition curve. For `CN(Cc1ccccc1)S(=O)(=O)c1ccc(NC(=S)NC(=O)C2CCCCC2)cc1`, the IC50 (in experiment [1]; at Beta-galactosidase) was > 66.6 µM (inactive) each time.

Take `O=C(Nc1ccc2ncccc2c1)c1ccccc1`: the IC50 in [2] is > 100 µM (inactive); in experiment [3] it was 14.2 µM (active).

The EC50 is the concentration that produces a half-maximal response. As for `O=C(NN1C(=O)/C(=C/C=C/c2ccco2)SC1=S)c1ccncc1`, the IC50 in experiment [4] was 12.3 µM (not active); on SUMO-activating enzyme [5], 0.53 µM (active); at SUMO-activating enzyme [6], 6.1 µM (active); in experiment [7], 14 µM (not active); in [8], 5.08 µM (active); in [10], 13.5 µM (active). For the same compound, the figures for the IC50 (in [11]; at Cysteine protease ATG4B; at Phospholipase A2) were > 100 µM (inactive), 11.1 µM (active) and > 80 µM (inactive), respectively. Also, the EC50 in [9] is > 100 µM (inactive).

For `O=C(Nc1ccc(NC(=O)c2cc3ccccc3o2)cc1)c1ccc2c(c1)OCCO2`, the 50% effective concentration (EC50) is 3.02 µM (active) in [12]; > 12 µM (not active) in the experiment “cells”; 12.7 µM (active) in [13]; < 0.1 µM (active) in [14]; 2.35 µM (active) in [15]. In experiment [16], the IC50 was > 80 µM (inactive).

For the compound `Cc1ccc(-n2c(=S)[nH]c3c(oc4ccccc43)c2=O)cc1`, the IC50 in [17] was 4.75 µM (active); in experiment [18] it was 6.54 µM (active).

Regarding `FC(F)(F)c1cccc(Oc2ccc3c(C(F)(F)F)cc(C(F)(F)F)nc3n2)c1`, the EC50 in experiment [19] and in [20] was > 55.7 µM (not active) each time.

Consider `COc1cccc(N(C(=O)c2cc[nH]n2)C2(C(=O)Nc3c(C)cccc3C)CCCCC2)c1`, for which the EC50 in experiment [21] is on record as 52.9 µM (not active).

As for `Cc1ccc(N/N=C/c2ccncc2)cc1`, the concentration giving a half-maximal response (EC50) in [22] is 14.4 µM (active); in experiment [23], > 50 µM (active); in experiment [24], > 38 µM (not active). Also, the AC50 in [25] was 4.65 µM (active).

Consider `COc1cc2c(cc1OC)-c1c(OC)c(OC)cc3ccnc(c13)C2=O` [OXOGLAUCINE], for which the 50% effective concentration (EC50) in [26] is > 120 µM (not active); in [27], 68.6 µM (active); in experiment [13], 9.88 µM (active); in [28] it was 0.834 µM (active); in experiment [14] it was 7 µM (active). Also, the AC50 on Cytochrome P450 2D6 is 10 µM (inconclusive); on Cytochrome P450 2C9 it was 39.8 µM (inconclusive).
